This note sets out measurements from a melting point compilation (Tetko et al.; mined from patent text by program, amines drawn as free bases though some values may be those of a salt).

SMILES strings stand for the structures.

In the case of `COCC(COC)N(C)Cc1ccc(NC(=O)C2=Cc3cc(-c4ccc(C)cc4)ccc3OCC2)cc1`, the melting point fell in the range of 128 to 132 °C.
The result for `O=C(NC[C@H]1CN(c2ccc3c(c2)CCCc2cn[nH]c2-3)C(=O)O1)c1ccccc1` reads 105 to 125 °C; that for `COC1=CC(=O)CC(NC(=O)Nc2ccccc2)C1` (configuration not stated), 183 to 185 °C.
The result for `CC1=N/C(=C\c2c[nH]c3ncccc23)C(=O)N1` reads 277 to 281 °C; that for `CCc1cn(C2OC(CNC(=O)C(C)Oc3cc(OC)c(Br)cc3Br)C(O)C2F)c(=O)[nH]c1=O` (configuration not stated), 223 to 224 °C; that for `N#CC(CC(=O)c1ccc(Cl)cc1)C(N)=O` (configuration not stated), 160 to 161 °C.
As for `CCN(CCCOC)c1nc(C)nc2c1nnn2-c1ccc(C(C)C)cc1Br`, the figure is 109 to 110 °C; as for `Cc1c(-c2ccccc2)n(-c2c(F)cccc2F)c(-c2ccccc2Cl)cc1=O`, 213 to 215 °C; as for `CCc1nc(-c2cccc(C(=O)OC)c2)c(-c2ccnc(N)c2)s1`, 173 to 174 °C.
Compound `Cc1cc(-c2nc3ccc(CCN4CCOCC4)cc3c(=O)[nH]2)cc(C)n1` came in with a melting point of 248 to 249 °C.
In turn, `CCCCCCCCCNC1=CC(=O)c2c(OC)ccc(OC)c2C1=O` yielded a melting point of 85 to 86 °C.
As for `OCCOc1c(Br)cc(Br)c2cccnc12`, the figure is 128 to 131 °C; as for `Cc1cc2c(cc1N1CCOCC1)OC(=O)C2C` (configuration not stated), 108 to 109 °C.
Regarding `CCOC(=O)C(=O)CC(=O)c1cn(Cc2ccc(F)cc2)c2c(Cl)cccc2c1=O`, the melting point lay within 164 to 165 °C.
As for `Cc1cccc(-c2nc3c(C)cccn3c2-c2ccnc(-c3ccc(OCC(N)=O)cc3)c2)n1`, the figure is 183 °C; as for `CC1NC(=O)NN=C1c1ccccc1` (configuration not stated), 214 °C.
As for `O=C(O)Cn1c(=O)c(=O)[nH]c2ccc([N+](=O)[O-])cc21`, the figure is 305 to 306 °C; as for `O=C(Nc1ccc(Cc2nnn[nH]2)cc1)C(F)(F)C(F)(F)F`, 183 to 185 °C.
The result for `CCOC(=O)c1sc2ccc(O)cc2c1Cl` reads 160 to 161 °C; that for `O=C1CCOc2cc(OCCn3ccnc3)ccc21`, 128 to 130 °C.
`CCN1C(=O)CCCc2ccc(Nc3ncc(Cl)c(Nc4c(F)cccc4C(=O)NC)n3)cc21` came in with a melting point of 228 to 235 °C.
The result for `CON1C=C2N=NC3=C(N2C1)N(c1cccc(Cl)c1)CC(C1CC1)=C3` reads 155 °C; that for `OC(Cn1cncn1)(Cn1cnc(-c2ccc(F)cc2)n1)c1ccc(C(F)(F)F)cc1F` (configuration not stated), 96 to 100 °C; that for `Nc1ccc(Nc2cccc(O)c2)cc1`, 146 to 149 °C.
As for `CCOC(=O)c1c(C)ncn(-c2ccc(Cl)cc2)c1=O`, the figure is 98 to 100 °C; as for `CCCOc1c(OC)cc(C=O)cc1SC`, 64 to 66 °C; as for `CCCCn1c(=O)[nH]c2nc3ccccc3n2c1=O`, 275 to 280 °C.
As for `O=c1oc(=O)n(-c2ccccc2)c2ccccc12`, the figure is 183 °C.
`O=C(NC(Cc1ccccc1)C(=O)O)OCc1ccc(-c2ccccc2)cc1` (configuration not stated) displayed a melting point of 142 °C.
As for `CCCCc1ncc(/C(C)=C(\Cc2cccs2)C(=O)O)n1Cc1ccc(C#N)cc1`, the figure is 210 to 212 °C.
The compound `O=c1ccc2cc(-c3ccccc3)ccc2n1O` gave a melting point of 219 to 220 °C.
`CCN1C(=O)C(C(=O)Nc2ccccc2S(C)=O)c2cc3c(cc21)CCO3` (configuration not stated) registered a melting point of 137 to 138 °C.
With `CCCCOc1cc(C(=O)O)n(Cc2ccc(C(F)(F)F)cc2Cl)n1`, the melting point is 158 to 160 °C.
As for `CCOCc1nc2c(N)nc3cc(OCc4ccc(F)cc4)ccc3c2n1CC(C)(C)NS(C)(=O)=O`, the figure is 251 to 253 °C.
Compound `CC(C)=NOCc1nc2c(N)nc3cccnc3c2n1CCCNC(=O)OC(C)(C)C` gave a melting point of 148 to 150 °C.
The result for `COc1ncnc(-c2cc([N+](=O)[O-])c(C#N)cc2F)c1Cl` reads 161 to 162 °C; that for `COc1ccc2cc3c(c(-c4ccc5c(c4)OCO5)c2c1OC)C(=O)NC3=O`, 274 to 276 °C.
Turning to `COC(=O)C(O)(c1cc(F)cc(F)c1)c1cc(F)cc(F)c1`, the melting point lay in the range of 113 to 114 °C.
As for `Nc1nc2ccccc2n1-c1cccc(-c2cscc2CO)c1`, the figure is 106 to 108 °C; as for `Cc1onc(CCc2ccccc2)c1C(N)=O`, 135 to 136 °C.
Regarding `NC(=O)CNC(=O)c1cccc(-c2cccc3nc(Oc4cccc(C(F)(F)F)c4)sc23)c1`, the melting point lay within 203 to 204 °C.
As for `O=C(Nc1cccc(Cl)c1)N1CCNC1=N[N+](=O)[O-]`, the figure is 214 to 216 °C; as for `Fc1cc(F)c(-c2c(Cl)nc(-n3ccnc3)nc2Cl)c(F)c1`, 72 to 74 °C.
Turning to `COc1ccc(C2=NNC(=O)CC2c2ccc(OC)c(F)c2)cc1` (configuration not stated), the melting point was 171 to 173 °C.
The result for `C=CCN(C)C(=S)Nc1ccccc1CC(=O)OC` reads 46 to 47 °C.
As for `Cc1cc(C)c(NC(=O)OC(C)(C)C)c(C)c1`, the figure is 73 to 73.5 °C.
The result for `O=C(Nc1cccc([N+](=O)[O-])c1)c1cccnc1Oc1cccc(C(F)(F)F)c1` reads 90 to 95 °C; that for `O=S(=O)(Cl)C=Cc1ccc(C2CCCCC2)c(Br)c1`, 93 to 97 °C; that for `CC(=O)Nc1ccc(-c2ccc3nnn(Cc4ccc5ncccc5c4)c3n2)cc1`, 220 to 223 °C.
`COC(=O)C=Cc1cc(C(=O)O)ccc1NC(=O)NC(=O)c1cc(F)c(F)cc1Cl` showed a melting point of 99 °C.
`CC(C)(C)N1CN(C(C)(C)C)C(N)=C2C=NN=C21` showed a melting point of 158 to 161 °C.
The result for `O=c1ccc2ccc(OCCCCl)cc2o1` reads 100 to 102 °C; that for `N#Cc1nc(-c2cnn(-c3c(Cl)cc(C(F)(F)F)cc3Cl)n2)[nH]c1C#N`, 192 to 194 °C; that for `CCOC(=O)NN=Cc1ccc2ccccc2n1`, 163 to 165 °C.
As for `CCOC(=O)c1cc(C(O)CBr)c(=O)[nH]c1C(=O)OCC` (configuration not stated), the figure is 134 to 138 °C; as for `O=S1(=O)N=C2CCCN2c2ccc(S(=O)(=O)NC3CCCCC3)cc21`, 151 to 153 °C; as for `O=C(Oc1ccc([N+](=O)[O-])cc1)c1ccnc(F)c1`, 148 to 150 °C.
As for `CCOC(=S)Cc1nc2ccccc2s1`, the figure is 45 to 48 °C; as for `COC(=O)C1Cc2c(ncn2Cc2ccccc2)CN1Cc1ccccc1` (configuration not stated), 91 to 93 °C; as for `NNc1ccc(Cl)cc1F`, 57 to 63 °C.
`S=C1CC(c2ccc(Cl)cc2)Oc2ccccc21` (configuration not stated) gave a melting point of 116 to 120 °C.
As for `Nc1ncc(S(=O)c2ccncc2)s1` (configuration not stated), the figure is 193 to 195 °C.
In turn, `CC(C)c1cc2c(cc1C(SCC(=O)O)c1ccccc1)OCO2` (configuration not stated) yielded a melting point of 114 °C.
As for `CCn1c2c(c3cc(OC)c(OC)cc3c1=O)C(=O)c1cc3c(cc1-2)OCO3`, the figure is 291 to 293 °C; as for `CCOC(=O)C(=NNc1ccc(Cl)cc1)C(C)=O`, 84 to 85 °C; as for `Cc1nc(-c2ccc(C(F)(F)F)cc2)oc1COc1ccc(/C=C/C(=O)O)cc1`, 193 °C.
As for `CON=C(C(=O)OC)c1ccccc1COc1ccc2c(c1)OCC2=NOC`, the figure is 108 to 110 °C.
Take `Oc1ncnc2nc(-c3cccc(Cl)c3)cnc12`: the melting point is over 315 °C.
`O=C(O)c1cc2cc(OCCNC[C@@H](O)c3csc(C(F)(F)F)n3)ccc2o1` displayed a melting point of 155 to 163 °C.
As for `Oc1ccc(Oc2ccc(Cl)cc2Cl)cc1`, the figure is 82 °C.
As for `CN1C(C)(C)CC(C(O)CNc2nc(Cl)nc(NCC(O)C3CC(C)(C)N(C)C(C)(C)C3)n2)CC1(C)C` (configuration not stated), the figure is 166 to 176 °C.
As for `Cc1cc(-c2cc(Cl)n(C)n2)c(C)[nH]1`, the figure is 59 to 61 °C; as for `CCOC(=O)c1cn(-c2nccs2)c2nc(N3CCC(NC(=O)[C@H](C)NC(=O)OC(C)(C)C)C3)ccc2c1=O` (some centres not stated), 138 to 140 °C; as for `CCCC(=O)Nc1ccc(O)c(C(=O)C=CN(C)C)c1`, 174 °C.
With `Cc1nc(N)c(C#N)cc1-c1ccccc1`, the melting point was in the range of 182 to 189 °C.
`N#CC(=NO)c1cccnc1` gave a melting point of 234 to 238 °C.
The result for `CC(C)(C)NS(=O)(=O)c1ccccc1OC(F)(F)F` reads 137 °C; that for `Cc1ccc(N(c2ccc(C)c(C)c2)c2cccc3ccccc23)cc1C`, 125 to 127 °C.
As for `O=C1N(c2cc(Cl)cc(Cl)c2)C(=O)C2(Cc3ccc(Br)cc3)CCCN12` (configuration not stated), the figure is 69.4 °C; as for `C[Si](C)(C)CCCCCCCCCCCNc1ccc(C(=O)O)cc1`, 121 to 122 °C.
The result for `CC(C(=O)O)c1ccc(-c2ccc(F)cc2Br)cc1` (configuration not stated) reads 77 to 79 °C; that for `COc1ccc2c(n1)c(CC[N+](=O)[O-])c1n2CCCC1`, 96 to 97 °C.
`CC1(C)N=C(c2ccccc2F)c2cc([N+](=O)[O-])ccc2NC1=O` registered a melting point of 241 °C.
As for `CCCCn1c(=O)c(NC(=O)Nc2cc(Cc3ncc[nH]3)ccc2C(C)(C)C)c(-c2cccc(O)c2)c2cccnc21`, the figure is 160 to 162 °C.
The result for `CC(=O)Nc1ccc(OCCCN2C(=O)c3ccccc3C2=O)cc1` reads 154 to 156 °C; that for `O=C(O)Cc1cccc2c(-c3ccccc3Cl)nccc12`, 190 °C; that for `CC(C)c1csc(/C=C/c2cccc(N)c2)n1`, 62 to 63 °C.
`CN1CCN(c2cc3nc4c(cc3cc2F)c(=O)c(C#N)cn4C)CC1` returned a melting point of 335 °C.
The result for `CCCNS(=O)(=O)Nc1ncccc1C(=O)OC` reads 208 to 210 °C; that for `CNCc1nc(-c2cc(C(C)(C)C)c(O)c(C(C)(C)C)c2)cs1`, 136 °C; that for `CCOC(=O)CCCNC1=NS(=O)(=O)c2ccccc21`, 125 to 127 °C.
For `CCOC(=O)Nc1cc(Oc2ccc3ccccc3c2)c(C#N)cc1F`, the melting point came out at 132 °C.
